Source: patent US20190262453A1, “DESIGN AND COMPOSITION OF CELL-STABILIZED PHARMACEUTICAL FORMULATIONS” (THE REGENTS OF THE UNIVERSITY OF MICHIGAN, priority 2016, published 2019)
Where a name gives a salt, the structure may show the parent alone.

Columns and labels:
[1] = tested on: RAW264.7 cells; experiment: Cell viability (XTT assay); assay type: cell-based; conditions: for cell viability: n=6
Description: Cell Viability. Viability of RAW264.7 cells were performed using Cell Proliferation Kit II (XTT) (Roche Applied Science, Mannheim, Germany, Cat. No. 11465015001) using the manufacturer's instructions. […] Post 24 hours exposure to CFZ, the cells were incubated with the yellow XTT solution (final concentration 0.3 mg/ml) for 4 h. […] An increase in number of living cells directly correlates to the amount of orange formazan formed, as monitored by the solution absorbance at 500 nm (Abs500). The following formula was used to determine viability of drug and inhibitor treated cells using untreated cells (blank) as a control—Cell Viability=(Abs500, treated—Abs700,treated)/(Abs500, blank—Abs700,blank).

[2] = pH-dependent solubility study of CFZ-HCl (Flynn approach); assay type: physicochemical
Description: Solubility Measurement Using the Flynn Approach. […] Mili-Q water (15 mL) was added to each vial ensuring that CFZ-HCl crystals were in great excess. Moreover, an appropriate amount of 0.1 M NaOH was added to each vial to set the initial equilibration pH measurements as follows: […] The set of sample containing vials was placed on a magnetic stirrer plate in a 25° C. water bath. […] The pH of the filtered sample was determine by Denver Instrument UltraBasic pH meter (Denver Instrument, Bohemia, N.Y.), after which the sample was subjected to HPLC analysis (Waters Alliance, Separations Module 2695) to determine the total solubility of the drug at the measured pH. […] The retention time for CFZ was determined to be at 4.75 min. […] Thus, in order to fit the experimental solubility-pH data curve of CFZ-HC, it was determined which one of the aforementioned solubility-pH relationships (equation 8 vs. equation 9) to use. […] Then, a value, say “y”, from the list of the computed [CFZH^+] values was set equal [CFZH+]S. By substituting “y' in place of [CFZH+]S, total solubility at the different pH values was calculated using the solubility-pH equation where the intrinsic salt is the primary solid species (equation 15). […]

[3] = in vivo; cited from earlier work

Row | Molecule | Vd [3] | other results
1 | CO/C1=C\C(C)=C\[C@@H](C)[C@@H](O)[C@@H](C)C/C(C)=C/C=C/[C@H](OC)[C@@H]([C@@H](C)[C@@H](O)[C@H](C)[C@@]2(O)C[C@@H](O)[C@H](C)[C@@H](C(C)C)O2)OC1=O [BafA1, bafilomycin A1] | – | cell viability ([1]; BafA1 alone at 6 nM): 65±25%; cell viability ([1]; BafA1 alone at 8 nM): 33±6%
2 | CC(C)/N=c1\cc2n(-c3ccc(Cl)cc3)c3ccccc3nc-2cc1Nc1ccc(Cl)cc1 [CFZ-HCl, Clofazimine Hydrochloride] | – | solubility versus unprotonated CFZ free base ([2]; dissolved in pure water): greater solubility; pHmax ([2]; from pH-solubility profile, 25° C.): 4.5±7.11×10^−15
3 | O=C(O)c1cc([N+](=O)[O-])ccc1NCCCc1ccccc1 [NPPB] | – | effect on cell viability [1]: no significant effect
4 | CCN(CC)CCNC(=O)c1c(C)[nH]c(/C=C2\C(=O)Nc3ccc(F)cc32)c1C [Sunitinib] | 4 L/kg | –
5 | CC/C(=C(\c1ccccc1)c1ccc(OCCN(C)C)cc1)c1ccccc1 [Tamoxifen] | 55 L/kg | –
6 | CO[C@H]1C[C@@H]2CC[C@@H](C)[C@@](O)(O2)C(=O)C(=O)N2CCCC[C@H]2C(=O)O[C@H]([C@H](C)C[C@@H]2CC[C@@H](OC(=O)C(C)(CO)CO)[C@H](OC)C2)CC(=O)[C@H](C)/C=C(\C)[C@@H](O)[C@@H](OC)C(=O)[C@H](C)C[C@H](C)/C=C/C=C/C=C/1C [Temsirolimus] | 3.3 L/kg | –
7 | CN(C)c1cc(NC(=O)CNC(C)(C)C)c(O)c2c1C[C@H]1C[C@H]3[C@H](N(C)C)C(O)=C(C(N)=O)C(=O)[C@@]3(O)C(O)=C1C2=O [Tigecycline] | 7.2 L/kg | –
8 | CN(C)CCOc1ccc(/C(=C(/CCCl)c2ccccc2)c2ccccc2)cc1 [Toremifene] | 48.38 L/kg | –
9 | Nc1nc(N)c2nc(-c3ccccc3)c(N)nc2n1 [Triameterene] | 13.4 L/kg | –
10 | c1cnc2cc3c(cc2n1)[C@@H]1CNC[C@H]3C1 [Varenicline] | 6.2 L/kg | –
11 | CC[C@]1(O)C[C@H]2CN(CCc3c([nH]c4ccccc34)[C@@](C(=O)OC)(c3cc4c(cc3OC)N(C=O)[C@H]3[C@@](O)(C(=O)OC)[C@H](OC(C)=O)[C@]5(CC)C=CCN6CC[C@]43[C@@H]65)C2)C1 [Vincristine] | 9.79 L/kg | –
12 | CCC1=C[C@@H]2CN(C1)Cc1c([nH]c3ccccc13)[C@@](C(=O)OC)(c1cc3c(cc1OC)N(C)[C@H]1[C@@](O)(C(=O)OC)[C@H](OC(C)=O)[C@]4(CC)C=CCN5CC[C@]31[C@@H]54)C2 [Vinorelbine] | 76 L/kg | –
13 | Ivermectin | 9.91 L/kg | –
